Test results as given in US20040235882A1, “Amino-substituted imidazopyridines for the treatment of gastrointestial diseases” (priority 2001, published 2004).

Tested on: pentagastrin-stimulated acid secretion of the perfused rat stomach
Experiment: Secretion-inhibiting action on the perfused rat stomach (pentagastrin-stimulated acid secretion, in vivo)
Conditions: anesthetized female CD rat, pentagastrin 1 μg/kg i.v. infusion, dose 3 μmol/kg i.d. (intraduodenal)
Source text: Testing of the secretion-inhibiting action on the perfused rat stomach
In Table A which follows, the influence of the compounds according to the invention on the pentagastrin-stimulated acid secretion of the perfused rat stomach after intraduodenal administration in vivo is shown.
The abdomen of anesthetized rats (CD rat, female, 200-250 g; 1.5 g/kg i.m. urethane) was opened after tracheotomy by a median upper abdominal incision and a PVC catheter was fixed transorally in the esophagus and another via the pylorus such that the ends of the tube just projected into the gastric lumen. The catheter leading from the pylorus led outward into the right abdominal wall through a side opening.
After thorough rinsing (about 50-100 ml), warm (37° C.) physiological NaCl solution was continuously passed through the stomach (0.5 ml/min, pH 6.8-6.9; Braun-Unita I). The pH (pH meter 632, glass electrode EA 147; φ=5 mm, Metrohm) and, by titration with a freshly prepared 0.01 N NaOH solution to pH 7 (Dosimat 665 Metrohm), the secreted HCl were determined in the effluent in each case collected at an interval of 15 minutes.
The gastric secretion was stimulated by continuous infusion of […] (=1.65 ml/h) of i.v. pentagastrin (left femoral vein) about 30 min after the end of the operation (i.e. after determination of 2 preliminary fractions). […]

| Compound | Inhibition of acid secretion [%] |
| --- | --- |
| Cc1nc2c3c(ccn2c1C)[C@@H](N1CCOCC1)[C@@H](O)CN3 [Example 9, (7R,8S,9R)-8-Hydroxy-2,3-dimethyl-7-(4-morphollno)-7,8,9,10-tetrahydroimidazo[1.2-h]-[1.7]naphthyridine] | 44 |
| Cc1nc2c3c(ccn2c1C)[C@@H](N(C)C)[C@@H](O)CN3 [Example 19, (7R,8S,9R)-8-Hydroxy-7-(dimethylamino)-2,3-dimethyl-7,8,9,10-tetrahydroimidazo[1.2-h]-[1.7]naphthyridine] | 64 |
